Measured values published in ChEMBL document CHEMBL1201862, “PubChem BioAssay data set” (2004).
Activity calls are given as the source filed them.

Columns and labels:
[1] = target: Peroxisome proliferator-activated receptor gamma/Nuclear receptor coactivator 2 (Homo sapiens, UniProt P37231); format: functional;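 also: agonist potency for raising coactivator recruitment to the receptor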
[2] = target: Peroxisome proliferator-activated receptor gamma/Nuclear receptor coactivator 3 (Homo sapiens, UniProt P37231); format: functional;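 also: agonist potency for raising coactivator recruitment to the receptor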
Sequence of Peroxisome proliferator-activated receptor gamma/Nuclear receptor coactivator 3 (P37231 whole entry): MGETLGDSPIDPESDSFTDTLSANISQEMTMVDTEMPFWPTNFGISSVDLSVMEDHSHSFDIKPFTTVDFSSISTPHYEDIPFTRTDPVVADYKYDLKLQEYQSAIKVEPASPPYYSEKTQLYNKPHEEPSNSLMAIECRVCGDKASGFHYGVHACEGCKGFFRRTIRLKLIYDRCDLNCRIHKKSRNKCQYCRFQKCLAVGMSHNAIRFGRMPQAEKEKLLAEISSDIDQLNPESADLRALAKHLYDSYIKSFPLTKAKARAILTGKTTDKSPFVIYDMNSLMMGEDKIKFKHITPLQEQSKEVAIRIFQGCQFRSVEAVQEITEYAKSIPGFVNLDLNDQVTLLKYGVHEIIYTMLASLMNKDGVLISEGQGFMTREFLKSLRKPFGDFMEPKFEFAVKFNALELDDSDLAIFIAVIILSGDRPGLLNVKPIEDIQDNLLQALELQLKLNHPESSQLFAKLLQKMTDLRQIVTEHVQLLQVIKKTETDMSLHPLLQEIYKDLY
Sequence of Peroxisome proliferator-activated receptor gamma/Nuclear receptor coactivator 3 (Q9Y6Q9 whole entry, further chain): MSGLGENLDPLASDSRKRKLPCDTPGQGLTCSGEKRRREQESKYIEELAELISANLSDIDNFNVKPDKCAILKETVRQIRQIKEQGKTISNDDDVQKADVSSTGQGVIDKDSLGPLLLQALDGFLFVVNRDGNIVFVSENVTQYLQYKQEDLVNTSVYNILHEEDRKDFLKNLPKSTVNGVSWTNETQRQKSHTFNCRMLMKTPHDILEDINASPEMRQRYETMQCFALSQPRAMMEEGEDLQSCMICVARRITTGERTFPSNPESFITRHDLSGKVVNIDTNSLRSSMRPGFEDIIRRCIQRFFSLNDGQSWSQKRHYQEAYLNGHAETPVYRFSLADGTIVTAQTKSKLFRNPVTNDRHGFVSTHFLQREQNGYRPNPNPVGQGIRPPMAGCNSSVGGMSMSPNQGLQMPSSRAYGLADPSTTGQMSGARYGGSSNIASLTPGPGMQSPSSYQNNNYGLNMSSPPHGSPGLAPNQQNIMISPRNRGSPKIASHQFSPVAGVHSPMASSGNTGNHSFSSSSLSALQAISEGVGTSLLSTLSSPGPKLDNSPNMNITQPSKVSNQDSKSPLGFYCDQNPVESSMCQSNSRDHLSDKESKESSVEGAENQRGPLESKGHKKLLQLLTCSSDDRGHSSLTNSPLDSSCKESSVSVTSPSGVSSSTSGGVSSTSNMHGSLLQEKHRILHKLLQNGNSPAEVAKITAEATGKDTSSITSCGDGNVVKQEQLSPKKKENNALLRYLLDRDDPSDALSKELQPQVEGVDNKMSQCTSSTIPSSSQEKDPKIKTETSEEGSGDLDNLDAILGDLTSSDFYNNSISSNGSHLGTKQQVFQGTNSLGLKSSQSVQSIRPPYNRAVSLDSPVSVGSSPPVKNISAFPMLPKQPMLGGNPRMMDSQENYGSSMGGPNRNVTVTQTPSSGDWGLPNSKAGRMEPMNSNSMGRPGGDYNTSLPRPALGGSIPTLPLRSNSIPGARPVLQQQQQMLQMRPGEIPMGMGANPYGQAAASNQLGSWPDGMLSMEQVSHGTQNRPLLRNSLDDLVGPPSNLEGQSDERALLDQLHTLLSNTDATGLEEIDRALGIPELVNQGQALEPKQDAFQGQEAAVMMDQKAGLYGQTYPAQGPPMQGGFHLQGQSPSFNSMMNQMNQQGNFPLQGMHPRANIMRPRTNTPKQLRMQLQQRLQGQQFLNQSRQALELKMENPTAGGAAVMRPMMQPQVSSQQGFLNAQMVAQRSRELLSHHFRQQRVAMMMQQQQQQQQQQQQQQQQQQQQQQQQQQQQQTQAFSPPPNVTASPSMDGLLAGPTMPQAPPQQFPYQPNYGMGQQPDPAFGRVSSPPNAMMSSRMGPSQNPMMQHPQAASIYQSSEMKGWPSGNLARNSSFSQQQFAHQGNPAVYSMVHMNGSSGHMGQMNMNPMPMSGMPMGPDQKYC

[3] = target: Peroxisome proliferator-activated receptor gamma/Nuclear receptor coactivator 1 (Homo sapiens, UniProt P37231); format: functional;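 also: agonist potency as compounds enhance coactivator SRC-1 recruitment to PPARgamma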
[4] = cytotoxicity toward DRD oncogenic fibroblasts, dose response, cell-based, non-viral oncogenic, luminescence (AID 1934); format: functional; conditions: Homo sapiens
BJ [5] = assay: cytotoxicity toward BJ-TERT fibroblasts, dose response, cell-based, RAS-independent, luminescence (AID 1933); format: functional; conditions: Homo sapiens
BJ [6] = assay: cytotoxicity toward BJ-TERT-LT-ST fibroblasts, dose response, cell-based, RAS-independent, luminescence (AID 1935); format: functional; conditions: Homo sapiens;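 also: BJ fibroblasts immortalized with TERT plus LT and ST oncogenes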
BJ [7] = assay: cells; format: functional, cell-based; conditions: Homo sapiens
[8] = target: Luciferin 4-monooxygenase (Photinus pyralis, UniProt P08659); assay: firefly luciferase enzyme inhibitors, dose response, biochemical, luminescence (AID 1891)
[9] = Luminescence Cell-Based Dose Confirmation HTS to Identify Inhibitors of Platelet Dense Granule Release. [Related pubchem assays: 1663 (Primary HTS), 1678 (Summary of Project)]; format: functional
[10] = inhibitors of intracellular T. cruzi replication, confirmation, NIH3T3 host cells, beta-gal luminescence (AID 2044); format: functional, cell-based;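 also: intracellular parasites grown in NIH/3T3 mouse fibroblasts as host cells; luminescent beta-galactosidase reporter signal from transgenic T. cruzi replicating inside host cells; inhibitors lower the luminescence signal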
[11] = cytotoxicity toward NIH3T3 fibroblasts, dose response, counter-screen, cell-based, ATP luminescence, mouse fibroblasts (AID 2010); format: functional;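 also: cells exposed to compound for about 90 hours before reading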
[12] = target: NAD-dependent protein deacylase sirtuin-5, mitochondrial (Homo sapiens, UniProt Q9NXA8); assay: SIRT5 desuccinylase inhibitors, dose response, biochemical, fluorescence imaging, cherry-pick, set 5 (AID 720591);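 also: desuccinylation of succinyl peptide AMC substrate read as fluorescence after trypsin release; potency of inhibitors that lower fluorescence and may act on trypsin instead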
Sequence of NAD-dependent protein deacylase sirtuin-5, mitochondrial (Q9NXA8 whole entry): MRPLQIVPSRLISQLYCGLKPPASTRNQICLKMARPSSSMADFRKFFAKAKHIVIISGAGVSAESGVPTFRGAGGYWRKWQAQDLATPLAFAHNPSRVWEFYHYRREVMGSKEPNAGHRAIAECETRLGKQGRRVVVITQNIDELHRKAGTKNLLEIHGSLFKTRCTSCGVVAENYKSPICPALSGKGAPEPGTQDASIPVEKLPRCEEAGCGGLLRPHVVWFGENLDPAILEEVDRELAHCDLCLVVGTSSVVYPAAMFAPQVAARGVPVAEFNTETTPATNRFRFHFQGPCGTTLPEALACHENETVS

[13] = target: T1, Small ubiquitin-related modifier 1 (Homo sapiens, UniProt P63165); assay: inhibitors of SUMO1 peptide binding, dose response, biochemical, fluorescence polarization, uHTS hits (AID 624382); format: functional; conditions: read-out: IC50_Mean
T1 sequence (P63165 whole entry): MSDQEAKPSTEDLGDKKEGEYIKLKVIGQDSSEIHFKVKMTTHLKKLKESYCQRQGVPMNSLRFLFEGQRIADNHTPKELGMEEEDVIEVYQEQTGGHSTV

[14] = target: T1, Small ubiquitin-related modifier 1; assay: inhibitors of SUMO1 partner interactions, dose response, biochemical, FRET (AID 624383); format: functional; conditions: read-out: IC50_Mean
[15] = target: Eukaryotic translation initiation factor 4E (Mus musculus, UniProt P63073); assay: eIF4E–eIF4G protein interaction inhibitors, dose response, biochemical, TR-FRET (AID 855); format: functional;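 also: potency for disrupting eIF4E binding to eIF4GI seen as loss of FRET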
Sequence of Eukaryotic translation initiation factor 4E (P63073 whole entry): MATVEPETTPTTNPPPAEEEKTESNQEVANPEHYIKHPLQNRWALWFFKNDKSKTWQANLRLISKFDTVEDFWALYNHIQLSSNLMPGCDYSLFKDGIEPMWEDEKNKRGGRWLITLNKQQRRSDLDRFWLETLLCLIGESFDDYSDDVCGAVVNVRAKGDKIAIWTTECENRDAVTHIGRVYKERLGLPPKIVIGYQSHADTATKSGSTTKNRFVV

Cytochrome P450 3A4 = Cytochrome P450 3A4 (Homo sapiens, UniProt P08684); conditions: Potency;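 also: confirmatory qHTS run detecting inhibitors and substrates of CYP3A4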
Sequence of Cytochrome P450 3A4 (P08684 whole entry): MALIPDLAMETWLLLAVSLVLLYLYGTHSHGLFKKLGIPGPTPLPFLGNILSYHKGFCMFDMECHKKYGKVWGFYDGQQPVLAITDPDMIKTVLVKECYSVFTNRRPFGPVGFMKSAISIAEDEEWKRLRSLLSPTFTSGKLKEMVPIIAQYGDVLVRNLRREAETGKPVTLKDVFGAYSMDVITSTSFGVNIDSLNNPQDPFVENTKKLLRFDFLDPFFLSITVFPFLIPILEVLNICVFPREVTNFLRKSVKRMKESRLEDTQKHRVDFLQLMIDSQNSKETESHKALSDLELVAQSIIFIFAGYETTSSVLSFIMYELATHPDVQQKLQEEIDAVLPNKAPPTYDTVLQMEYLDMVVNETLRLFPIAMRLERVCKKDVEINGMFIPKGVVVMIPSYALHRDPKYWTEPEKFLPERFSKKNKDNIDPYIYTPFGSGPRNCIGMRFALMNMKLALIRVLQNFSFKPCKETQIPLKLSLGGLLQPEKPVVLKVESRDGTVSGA

[16] = target: T2, Rac GTPase-activating protein 1 (Homo sapiens, UniProt Q9H0H5); assay: MgcRacGAP GTPase-activating activity inhibitors, confirmation, biochemical, ADP Hunter fluorescence, primary and confirmatory (AID 624330); format: functional
T2 sequence (Q9H0H5 whole entry): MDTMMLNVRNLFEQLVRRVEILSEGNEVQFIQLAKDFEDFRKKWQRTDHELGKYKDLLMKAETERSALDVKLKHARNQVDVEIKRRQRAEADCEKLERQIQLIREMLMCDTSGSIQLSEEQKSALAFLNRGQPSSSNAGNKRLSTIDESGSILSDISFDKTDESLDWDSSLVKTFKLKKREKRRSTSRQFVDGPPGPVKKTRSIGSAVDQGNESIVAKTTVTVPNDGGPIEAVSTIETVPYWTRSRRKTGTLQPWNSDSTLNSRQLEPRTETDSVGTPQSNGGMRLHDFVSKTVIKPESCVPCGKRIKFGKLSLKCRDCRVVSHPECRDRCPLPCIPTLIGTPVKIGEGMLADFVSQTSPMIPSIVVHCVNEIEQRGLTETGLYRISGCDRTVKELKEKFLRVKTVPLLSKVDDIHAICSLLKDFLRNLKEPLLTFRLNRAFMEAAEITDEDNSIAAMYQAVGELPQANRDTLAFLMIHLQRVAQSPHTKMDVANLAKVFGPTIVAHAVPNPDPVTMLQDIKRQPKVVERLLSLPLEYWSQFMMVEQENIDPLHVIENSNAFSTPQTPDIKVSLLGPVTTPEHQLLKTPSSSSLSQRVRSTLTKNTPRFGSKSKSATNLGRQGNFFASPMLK

[17] = P. falciparum Dd2 growth inhibitors, dose response, SYBR Green, cherry-picked samples (AID 1159567); format: functional, cell-based
[18] = HepG2 cell cytotoxicity, dose response, cytotoxicity control, cherry-picked samples (AID 1159577); format: functional, cell-based
Bcl-2-like protein 10 = target: T3, Bcl-2-like protein 10 (Homo sapiens, UniProt Q9HD36); assay: displacers of TR3 peptide from Bcl-B, primary screen, selectivity assay for Bfl-1 inhibitor project, biochemical, fluorescence polarization, FITC-TR3 peptide (AID 748);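 also: fluorescence polarization from a fluorescein-labelled TR3 peptide binding purified Bcl-B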
T3 sequence (Q9HD36 whole entry): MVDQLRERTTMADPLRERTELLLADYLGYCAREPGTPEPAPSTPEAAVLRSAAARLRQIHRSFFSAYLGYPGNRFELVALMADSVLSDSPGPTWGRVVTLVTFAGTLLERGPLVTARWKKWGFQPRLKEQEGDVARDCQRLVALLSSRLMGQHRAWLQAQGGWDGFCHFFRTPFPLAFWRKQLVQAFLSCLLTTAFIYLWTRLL

Cytochrome P450 2C9 = Cytochrome P450 2C9 (Homo sapiens, UniProt P11712)
fMet-Leu-Phe receptor = target: T4, fMet-Leu-Phe receptor (Homo sapiens, UniProt P21462); assay: FPR ligands, dose response (AID 519); format: functional
T4 sequence (P21462 whole entry): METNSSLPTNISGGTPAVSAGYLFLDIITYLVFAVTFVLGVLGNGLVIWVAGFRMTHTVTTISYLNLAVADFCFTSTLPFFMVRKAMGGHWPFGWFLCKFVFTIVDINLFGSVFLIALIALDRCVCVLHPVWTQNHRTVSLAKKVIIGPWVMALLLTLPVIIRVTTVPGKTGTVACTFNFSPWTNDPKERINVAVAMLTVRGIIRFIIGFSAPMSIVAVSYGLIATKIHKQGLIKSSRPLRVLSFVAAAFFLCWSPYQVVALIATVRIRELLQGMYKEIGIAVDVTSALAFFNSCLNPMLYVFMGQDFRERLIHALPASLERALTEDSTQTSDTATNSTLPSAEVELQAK

[19] = P. falciparum 3D7-ScDHODH growth inhibitors, dose response, SYBR Green, dry powder samples (AID 1159570); format: functional, cell-based;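 also: parasite growth measured after 72 hours of compound exposure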
[20] = P. falciparum ATP4 D1247Y mutant growth inhibitors, dose response, NITD609-resistant line, SYBR Green, dry powder (AID 1159571); format: functional, cell-based;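 also: parasites synchronized at ring stage by sorbitol before testing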
[21] = P. falciparum Dd2 growth inhibitors, dose response, SYBR Green, dry powder samples (AID 1159566); format: functional, cell-based;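 also: potency for growth inhibition with lower SYBR green DNA signal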
[22] = target: Induced myeloid leukemia cell differentiation protein Mcl-1 (Homo sapiens, UniProt Q07820); format: functional
[23] = target: T5, Carboxy-terminal domain RNA polymerase II polypeptide A small phosphatase 1 (Homo sapiens, UniProt Q9GZU7); assay: inhibitors of CTDSP1, concentration-response testing, biochemical assay, absorbance-based, actives from ultra-high-throughput screening (AID 540297); format: functional
T5 sequence (Q9GZU7 whole entry): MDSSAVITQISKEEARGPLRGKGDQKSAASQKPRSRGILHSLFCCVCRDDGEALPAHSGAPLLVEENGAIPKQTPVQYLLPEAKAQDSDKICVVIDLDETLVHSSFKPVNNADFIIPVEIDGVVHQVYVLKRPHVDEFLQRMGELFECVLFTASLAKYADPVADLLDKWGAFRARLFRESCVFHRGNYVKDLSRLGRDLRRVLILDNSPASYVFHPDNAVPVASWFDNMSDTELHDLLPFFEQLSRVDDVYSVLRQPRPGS

[24] = target: T6, DNA repair protein RAD52 homolog (Homo sapiens, UniProt P43351); format: functional, biochemical
T6 sequence (P43351 whole entry): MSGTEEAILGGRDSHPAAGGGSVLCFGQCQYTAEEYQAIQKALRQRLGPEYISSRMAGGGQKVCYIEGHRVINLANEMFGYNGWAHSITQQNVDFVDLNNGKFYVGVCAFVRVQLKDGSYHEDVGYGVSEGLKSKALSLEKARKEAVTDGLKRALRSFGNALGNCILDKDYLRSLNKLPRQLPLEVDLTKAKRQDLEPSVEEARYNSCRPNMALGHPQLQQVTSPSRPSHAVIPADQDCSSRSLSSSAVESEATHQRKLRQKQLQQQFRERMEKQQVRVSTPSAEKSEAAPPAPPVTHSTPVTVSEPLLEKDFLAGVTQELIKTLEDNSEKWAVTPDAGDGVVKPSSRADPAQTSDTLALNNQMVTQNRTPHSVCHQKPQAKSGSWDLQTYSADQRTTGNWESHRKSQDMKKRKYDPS

Sequence of Peroxisome proliferator-activated receptor gamma/Nuclear receptor coactivator 2 (P37231 whole entry): as the sequence (P37231 whole entry) above
Sequence of Peroxisome proliferator-activated receptor gamma/Nuclear receptor coactivator 2 (Q15596 whole entry, further chain): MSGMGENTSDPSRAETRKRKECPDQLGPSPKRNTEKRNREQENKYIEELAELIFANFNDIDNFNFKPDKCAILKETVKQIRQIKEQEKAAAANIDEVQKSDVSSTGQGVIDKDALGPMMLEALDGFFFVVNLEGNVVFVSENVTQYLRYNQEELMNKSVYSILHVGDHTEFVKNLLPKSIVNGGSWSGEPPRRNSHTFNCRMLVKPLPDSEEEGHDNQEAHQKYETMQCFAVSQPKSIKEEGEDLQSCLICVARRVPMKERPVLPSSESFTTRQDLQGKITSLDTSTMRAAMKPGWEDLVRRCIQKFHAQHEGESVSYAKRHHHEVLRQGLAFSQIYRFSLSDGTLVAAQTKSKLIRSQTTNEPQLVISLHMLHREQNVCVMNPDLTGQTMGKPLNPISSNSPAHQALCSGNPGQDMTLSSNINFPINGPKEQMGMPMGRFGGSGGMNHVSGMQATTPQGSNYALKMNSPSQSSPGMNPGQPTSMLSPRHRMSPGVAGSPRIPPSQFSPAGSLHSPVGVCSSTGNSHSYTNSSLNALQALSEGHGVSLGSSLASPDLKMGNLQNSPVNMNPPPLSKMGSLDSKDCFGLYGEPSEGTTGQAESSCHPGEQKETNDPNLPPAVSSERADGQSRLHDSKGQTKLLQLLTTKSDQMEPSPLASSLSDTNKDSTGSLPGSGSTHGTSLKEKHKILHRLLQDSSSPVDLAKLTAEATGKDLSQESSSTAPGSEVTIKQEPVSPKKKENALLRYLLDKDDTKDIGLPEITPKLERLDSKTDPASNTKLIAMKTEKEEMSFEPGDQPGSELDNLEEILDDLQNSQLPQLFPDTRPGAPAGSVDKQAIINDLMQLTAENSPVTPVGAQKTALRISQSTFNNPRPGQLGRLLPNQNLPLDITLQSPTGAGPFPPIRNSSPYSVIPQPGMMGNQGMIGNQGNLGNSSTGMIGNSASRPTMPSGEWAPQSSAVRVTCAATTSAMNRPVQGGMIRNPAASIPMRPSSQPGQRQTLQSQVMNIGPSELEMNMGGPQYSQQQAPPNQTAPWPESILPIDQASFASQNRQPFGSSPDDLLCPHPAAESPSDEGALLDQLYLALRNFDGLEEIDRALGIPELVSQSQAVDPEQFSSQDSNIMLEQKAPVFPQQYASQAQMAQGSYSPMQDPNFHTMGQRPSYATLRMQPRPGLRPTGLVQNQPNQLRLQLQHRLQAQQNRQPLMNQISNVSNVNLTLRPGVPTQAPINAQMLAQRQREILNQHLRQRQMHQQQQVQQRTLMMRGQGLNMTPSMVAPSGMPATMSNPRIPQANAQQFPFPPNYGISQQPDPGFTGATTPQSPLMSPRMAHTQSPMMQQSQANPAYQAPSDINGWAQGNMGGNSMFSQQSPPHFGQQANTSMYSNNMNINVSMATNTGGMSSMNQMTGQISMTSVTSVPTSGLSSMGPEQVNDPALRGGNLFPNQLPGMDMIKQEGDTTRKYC

CCc1ccc(N(C(=O)c2csnn2)C(C(=O)NC(C)(C)C)c2cccnc2)cc1 (stereo not given)
EC50 [1]: > 79.4 µM (not active) | EC50 [2]: > 79.4 µM (not active) | EC50 [3]: > 79.4 µM (not active)

Cc1ncsc1C(=O)Nc1nc2c(s1)CCCC2
EC50 [4]: 20.9 µM (inconclusive) | EC50 (BJ [5]): 18 µM (active) | EC50 (BJ [6]): > 150 µM (not active) | EC50 (BJ [7]): 20 µM (active) | EC50 [8]: 3.81 µM (active) | EC50 [9]: 3.99 µM (active)

CN(C)CCCN(C(=O)c1ccc(N2C(=O)CCC2=O)cc1)c1nc2c(F)cccc2s1
EC50 [1]: > 79.4 µM (not active) | EC50 [10]: 0.471 µM (active) | EC50 [2]: > 79.4 µM (not active) | EC50 [3]: > 79.4 µM (not active) | EC50 [11]: > 30 µM (not active)

COc1ccc(S(=O)(=O)N2CCOCC2)cc1NC(=O)CSc1n[nH]c(C(C)C)n1
AC50 [12]: > 30 µM (inactive)

COc1ccc(OC)c(-c2csc(NC(=O)Cn3[nH]c(=O)c4ccccc4c3=O)n2)c1
AC50 [12]: 28 µM (active) | IC50 [13]: > 66.6 µM (inactive) | IC50 [14]: 100 µM (inactive) | IC50 [15]: 50 µM (inactive)

Nc1ccc(-c2ccc(N)cc2)cc1 [BENZIDINE]
AC50 (Cytochrome P450 3A4): 25.1 µM (inconclusive) | IC50 [16]: 7.39 µM (active)

CCN(CC)C(=O)CSc1nc2ncccc2[nH]1
EC50 [1]: > 79.4 µM (not active) | EC50 [2]: > 79.4 µM (not active) | EC50 [3]: > 79.4 µM (not active)

COC(=O)[C@@H]1C[C@H]2CC[C@H](O)C[C@H]2N1CC1CC1
AC50 (Cytochrome P450 3A4): 20 µM (inconclusive)

COc1ccc2c3c([nH]c2c1)[C@@H](CO)N(C(=O)CN(C)C)CC31CN(CC2CCCC2)C1
AC50 [17]: 2.12 µM (active) | AC50 [18]: 13.8 µM (active)

Cc1ccc(-n2nc3ccc(NC(=O)c4ccc5c(c4)OCO5)cc3n2)cc1
IC50 (Bcl-2-like protein 10): 73.3 µM (inactive) | AC50 (Cytochrome P450 2C9): 4.47 µM (inconclusive)

COc1ccc(S(=O)(=O)N2CCOc3ccccc32)cc1
EC50 [4]: 13.1 µM (inconclusive) | EC50 (BJ [5]): 14 µM (active) | EC50 (BJ [6]): 10.3 µM (inconclusive) | EC50 (BJ [7]): 55.9 µM (inconclusive)

O=C(Nc1ccc(Nc2ccccc2)cc1)c1ccc(Br)o1
Ki (fMet-Leu-Phe receptor): > 66.7 µM (inactive)

CCc1csc(N2[C@H](C#N)[C@H](c3ccccc3-c3ccc(F)cc3)[C@H]2CO)n1
AC50 [17]: 2.65 µM (active) | AC50 [19]: 1.13 µM (active) | AC50 [20]: 5.46 µM (active) | AC50 [21]: 0.989 µM (active)

CSc1ccccc1NC(=O)COC(=O)CCC(=O)c1ccc(F)cc1
AC50 [12]: > 30 µM (inactive)

C[C@H](CO)N1C[C@H](C)[C@H](CN(C)S(=O)(=O)c2ccc([N+](=O)[O-])cc2)OCc2ccccc2-c2c(n(C)c3ccccc23)C1=O
AC50 [17]: 1 µM (active) | AC50 [19]: 0.476 µM (active) | AC50 [20]: 0.308 µM (active) | AC50 [21]: 0.305 µM (active)

COC(=O)C1=[N+]([O-])OC(C(=O)OC)C1c1c[nH]c2ccccc12 (stereo not given)
Ki (fMet-Leu-Phe receptor): > 66.7 µM (inactive)

CCn1cc(S(=O)(=O)Nc2ccccc2C(F)(F)F)cn1
EC50 [1]: > 79.4 µM (not active) | EC50 [2]: > 79.4 µM (not active) | EC50 [3]: > 79.4 µM (not active)

O=C(COC(=O)c1ccc2c(c1)C(=O)N(Cc1ccncc1)C2=O)Nc1ccccc1[N+](=O)[O-]
IC50 [22]: 4.84 µM (active)

N#CCC(=O)NC(=O)NCC1CC1
AC50 (Cytochrome P450 3A4): 0.0126 µM (inconclusive)

CCN(C(=O)Cc1c(C(=O)O)[nH]c2ccccc12)c1cc(OC)ccc1OC
Ki (fMet-Leu-Phe receptor): 18.4 µM (inactive)

O=C(N/N=C/c1ccco1)c1cccc(N2Cc3ccccc3C2)c1
IC50 [22]: 3.75 µM (active) | IC50 [23]: 4.27 µM (active)

CCN1CCN(c2ccc(N)c(C)c2)CC1
IC50 [16]: 48.3 µM (active) | AC50 [24]: 3.46 µM (active)

c1nc[nH]n1
AC50 (Cytochrome P450 3A4): 31.6 µM (inconclusive)
